# Measured values as given in patent publication US20260226001A1, “PROCESS FOR PREPARING AN N-GUANYLAMINO ACID” (Evonik Operations GmbH, priority 2023, published 2026).
# How the values were obtained:
# [1] = Storage of acidic, concentrated permeate in a fridge; GAA content determined by HPLC; format: physicochemical; conditions: for GAA content: acidic and concentrated permeate stored in a fridge
# Description: After fermentation and inactivation of the fermentation broth, the pH of the broth was adjusted to 1.5 using 75% w/w of H2SO4 at a temperature of 50° C. The biomass was removed by means of ultrafiltration and the temperature of the broth was kept constant at 50° C. The resulting permeate was concentrated at 80° C. and used for the crystallization step. The permeate fed to the crystallization was adjusted to pH 8 using 25% w/w of NH4OH. The formed crystals were separated by means of a suction filter and dried.
# A part of the acidic and concentrated permeate was stored aside in a fridge over a period of ca. 2 weeks. The GAA content in said permeate was regularly determined by means of HPLC.
# Description of the HPLC Method:
# • 2.3 g ammonium dihydrogenphosphate (NH4H2PO4) and • 2.6 g di-ammonium hydrogenphosphate ((NH4)2HPO4) • dissolved in 2 L purified water
# 2.3 g ammonium dihydrogenphosphate (NH4H2PO4) and • 2.6 g di-ammonium hydrogenphosphate ((NH4)2HPO4) • dissolved in 1 L purified water and mixed with 1 L acetonitrile
# The following gradient was used in the HPLC method: […]
# [2] = aqueous medium; cited from earlier work
structure (smiles),measurement,setting,value
"N=C(N)NCC(=O)O [GAA, guanidinoacetic acid]",GAA content,[1]; 1 Apr. 2022,120.9 g/kg
same,GAA content,[1]; 7 Apr. 2022,118.5 g/kg
same,GAA content,[1]; 12 Apr. 2022,119.9 g/kg
same,GAA content,[1]; 13 Apr. 2022,119.3 g/kg
same,degradation of the GAA in the acidic and concentrated permeate,"[1]; fridge, over the 2-week period, HPLC",no degradation
same,pKa,[2],approximately 2.9
same,pKb,[2],approximately 10.91
